For one experiment, the system named is high-anxiety rats. As to conditions: particularly in high-anxiety rats; cited from earlier work.
Experiment [1] deals with rats. As to conditions: cited from earlier work.
The conditions of experiment [2]: in vivo; cited from earlier work.
The subject of the next experiment is ethanol withdrawal rats. As to conditions: cited from earlier work.
The conditions of experiment [3]: in vivo; cited from earlier work. This is another data set of the same source.
A further experiment deals with IBS patients. As to conditions: cited from earlier work.
The conditions of experiment [4]: in vivo; cited from earlier work. This is another data set of the same source.
The conditions of experiment [5]: in vivo; cited from earlier work. This is another data set of the same source.
For experiment [6] the following is noted: in vivo; cited from earlier work. The source holds these as a separate data set.
The conditions of experiment [7]: pretreatment; cited from earlier work.
In experiment [8] the test system is rats. As to conditions: cited from earlier work. The source holds these as a separate data set.
The test system of experiment [9] is rats. As to conditions: cited from earlier work. This is another data set of the same source.
The conditions of experiment [10]: in vivo; cited from earlier work. The source holds these as a separate data set.
Experiment [11] has as its system rats. As to conditions: cited from earlier work. This is another data set of the same source.
The next experiment deals with Tg2576 mice. As to conditions: cited from earlier work.
The subject of the next experiment is rat. As to conditions: cited from earlier work.
The conditions of experiment [12]: in vivo; cited from earlier work. The source holds these as a separate data set.
For experiment [13] the following is noted: in vivo; cited from earlier work. This is another data set of the same source.
The conditions of experiment [14]: in vivo; cited from earlier work. The source holds these as a separate data set.
The subject of the next experiment is Balb/c mice. Description: Light/dark box test in mice (anxiolytic effect). It counts as in vivo. As to the method: The light/dark box test in mice was carried out according to a modified method of Belzung C., Misslin R., Vogel E. et al. (Reference; Behavioural effects of the benzodiazepine receptor partial agonist RO16-6028 in mice, Psychopharmacology, 97, 388-391, 1989). The test apparatus used was a light/dark box comprising a covered black acrylic box (dark box; 15×10×20 cm), an uncovered white acrylic box (light box; 15×20×20 cm) and a black acrylic tunnel (10×7×4.5 cm) which connects dark box and light box and enables a mouse to freely move back and forth between the dark box and light box. In this test apparatus, however, a transparent acrylic polymer was used for the front side (20×20 cm) and back side (20×20 cm) of the light box to allow observation of the behavior. After setting illumination so that the light intensity of the floor of the light box was 150 Lux, 5-week-old male Balb/c mice (purchased from Nihon Charles River) were introduced into the dark box at the beginning of the test. For the test, the tested compound was suspended in 5% dimethylsulfoxide, 5% Cremopor EL and 90% physiological saline and orally administered to the test animals one hour prior to the start of the test.
The time spent in the light box was measured as an index of the anxiolytic effect, with “spend in the light box” defined as the state in which all limbs of the mice were on the floor of the light box. […] The statistical significance between the vehicle-treated group and the test compound-treated groups was analyzed by one way analysis of variance followed by Dunnett multiple comparison when multiple doses were set for the same test, and by the Mann-Whitney U test when only one dose was set.

In a further experiment the target is T1, human CRFR1 (Homo sapiens, UniProt P34998).
T1 construct: The full-length CRFR1 gene was obtained by PCR using human brain cDNA library; expressed in transfected cells; pcDNA3.1 expression vector; membrane fraction used
T1 sequence (P34998 24-415): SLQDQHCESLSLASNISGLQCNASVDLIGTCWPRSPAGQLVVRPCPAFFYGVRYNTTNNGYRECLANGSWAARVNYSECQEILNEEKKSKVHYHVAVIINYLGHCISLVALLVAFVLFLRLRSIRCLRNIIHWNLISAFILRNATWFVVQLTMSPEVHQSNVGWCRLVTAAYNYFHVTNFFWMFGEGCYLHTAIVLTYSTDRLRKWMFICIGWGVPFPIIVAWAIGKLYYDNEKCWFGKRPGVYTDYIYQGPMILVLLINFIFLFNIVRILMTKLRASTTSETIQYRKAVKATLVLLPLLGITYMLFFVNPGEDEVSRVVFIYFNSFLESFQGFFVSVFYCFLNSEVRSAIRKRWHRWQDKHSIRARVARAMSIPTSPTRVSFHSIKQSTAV
Description: CRFR1 binding test (SPA competition with 125I-CRF, membrane fraction of CRFR1-expressing HEK293 cells). As to conditions: 100 pM 125I-CRF, room temperature, read-out: CRF1 receptor binding capacity IC50. As to the method: The binding capacities of the compounds of the invention for CRF1 receptor (CRFR1) were evaluated.
The membrane fraction of human CRFR1 high-expressing cells was used as the material for a CRFR1 binding experiment. The CRFR1-expressing cells were prepared in the following manner. The full-length CRFR1 gene was obtained by PCR using human brain cDNA library (QuickClone™ Clontech). The obtained DNA fragment was inserted into a cloning vector and the nucleotide sequence was confirmed. cDNA having the proper nucleotide sequence was linked to an expression vector (pcDNA3.1™, Invitrogen). The CRFR1 expression vector was introduced into HEK293 cell, and the resistant cells which proliferated in culture medium containing G418 (1 mg/ml) were cloned by the limiting dilution method. Out of the cloned cells, cells having high binding affinity between the membrane fraction per unit of protein and sauvagine were selected according to the following binding experiment. And the selected cells were used for the experiments.
The cloned cells obtained in (1) were collected and suspended in ice-cooled membrane buffer (50 mM Tris-HCl, 5 mM MgCl2, 2 mM EGTA, 1 mM DTT, protease inhibitor cocktail (COMPLETE™, Roche Diagnostics) pH 7.3), and then the cells were disrupted with a Polytron ([…]) while cooling on ice (level 5, 10 seconds, 2-5 times, ice-cooling) and then centrifuged (2,000 rpm, 5 minutes, 4° C.), after which the supernatant was collected. Membrane buffer was added to the precipitate, and the mixture was subjected to Polytron treatment (same conditions as above) and centrifuged (same conditions as above), and the obtained supernatant was collected and combined with the previous supernatant. This was centrifuged (13,000 rpm (18,000×g), 30 minutes, 4° C.) to prepare cell membranes. The precipitated cell membranes were suspended in membrane buffer and disrupted with a Polytron (level 5, 10 seconds, 3-5 times, ice-cooling) to prepare a dispersed suspension. The protein assay was performed.
The following method (1) or (2) was performed for use as the cell membrane fraction.
(1) The above dispersed suspension was diluted with membrane buffer containing 0.1% BSA to a protein concentration of 200 μg/ml, for use as the cell membrane fraction
(2) The above dispersed suspension was frozen for preservation, and if needed, thawed, re-dispersed and diluted for used as the cell membrane fraction.
A binding competition experiment with CRF was conducted by the SPA (GE Healthcare) method using a 96-well plate. A mixture of 5 μg of the cell membrane fraction protein, 1 mg of SPA beads and 100 pM ^125I-CRF (Perkin Elmer) was allowed to stand at room temperature for at least 2 hours in the presence of a test compound, and the radioactivity of each well after centrifugation (1,200 rpm (260×g), 5 minutes, room temperature) was measured with a TopCount (registered trademark; Perkin Elmer).
The radioactivity with addition of a 4,000-fold excess of non-radioactive sauvagine as the nonspecific binding was subtracted from each value, and the resulting value was expressed as a percentage (% of control), with 100% as the radioactivity without addition of the test compound (control). The IC50 value was calculated from a binding inhibition curve drawn with test compound concentration on the horizontal axis and % (% of control) on the vertical axis.

For `CCCN(CCC)c1cc(C)nc2c(-c3cnc(N(C)C)cc3C)c(C)nn12` [Example R121919], the stress-related sleep disorder entry in the experiment with high-anxiety rats was “inhibits”. Further, the anti-anxiety action result with rats [1] was “exhibits an anti-anxiety action”. In addition, in experiment [2], the “ameliorating depression, depressive symptoms, anxiety” value was “effective”.

As for α-helical CRF(9-41), the anxiety behavior entry with ethanol withdrawal rats is given as “inhibits”. The “ischemic and excitotoxic encephalopathy” value in experiment [3] is listed as “inhibits”. In the experiment on IBS patients, the “abdominal pain and anxiety” value is on record as “reduces”; the colon intestinal hyperkinesis entry is given as “inhibits”. Moreover, in experiment [4], the “stress-related increase in intracerebral amyloid-β” value was “suppresses”. Further, in [5], the “stress-related reduction in food intake” value is reported as “inhibit”.

Take `CCCCN(CC)c1nc(C)nc2c1c(C)cn2-c1c(C)cc(C)cc1C` [CP-154526]: the “learning disturbance following acute stress” value in experiment [6] is given as “inhibits”. In experiment [7], the “naltrexone-induced morphine withdrawal symptoms” value was “inhibits”. In addition, in the experiment with rats [8], the “recurrence of stress-elicited drug (heroin, cocaine)-seeking behavior” value was “inhibits”. For the same molecule, the “anti-depressant and anti-anxiety actions” value in the experiment with rats [9] is “exhibits anti-depressant and anti-anxiety actions”. Besides, in experiment [10], the “gastric emptying retardation following surgery” value is reported as “ameliorates”. The “recurrence of stress-elicited alcohol-seeking behavior” value in the experiment with rats [11] was “inhibits”.

With `CCCN(CC1CC1)c1nc(C)nc(Nc2c(Cl)cc(Cl)cc2Cl)c1Cl` [NBI-27914], in the experiment with Tg2576 mice, the “increased levels of Aβ and Aβ plaque deposition induced by stress” value was “inhibits”. In addition, the “water avoidance stress-related rat catharsis” value in the experiment on rat is given as “inhibits”. In [12], the “limbic system seizure (convulsion and epilepsy induced by CRF administration)” value is given as “inhibits”.

On to `CCCCN(CC)c1nc(C)nc2c1c(C)c(C)n2-c1c(C)cc(C)cc1C` [antalarmin], for which the “hypertension induced by intraventricular administration of CRF” value in experiment [13] is “inhibits”. For the same molecule, the “stress-induced hippocampal tau phosphorylation” value in experiment [14] was “inhibits”.

For the molecule `CCN(c1nc(C)cc(N2CC=C(c3cccc(F)c3)CC2)n1)c1ccc(C(C)C)cc1SC` [CRA1000], the “stress-related reduction in food intake” value in experiment [5] is “inhibit”.

In the case of `CCOCc1cc(OC)c(-c2csc3c(N(CC4CCC4)C4CCOCC4)c(OC)nn23)c(OC)c1` [Example 4, N-(Cyclobutylmethyl)-3-[4-(ethoxymethyl)-2,6-dimethoxyphenyl]-6-methoxy-N-(tetrahydro-2H-pyran-4-yl)pyrazolo[5,1-b][1,3]thiazole-7-amine], the “anxiolytic effect in the light/dark box test” value in the experiment on Balb/c mice (30 mg/kg, oral administration) was “statistically significant effects”. In the experiment with Balb/c mice (Mus musculus, 1 h, minimum dose significantly prolonging time spent in the light box vs vehicle, oral, one hour prior to test), this molecule showed a minimal effective dose of 30 mg/kg. At human CRFR1, the 50% inhibitory concentration (IC50) came out at 34 nM.

Usually minimal effective dose stands for the smallest amount tested that counted as effective. Read a low minimal effective dose as greater potency. By IC50 is commonly meant the concentration at which inhibition is half-maximal.

Source of the values: patent US8431603B2, “3-phenylpyrazolo[5,1-b]thiazole compounds” (Eisai R&D Management Co., Ltd., priority 2008, dated 2013).
